Measured values published in patent US9073911B2, “Pyrazole derivatives” (HOFFMANN-LA ROCHE INC., priority 2011, dated 2015).
Counter-ions that a name gives are not always drawn.

Legend:
mouse TAAR1 = mouse TAAR1 (Mus musculus (Mouse), UniProt Q923Y8); test: Radioligand binding assay on mouse TAAR1; settings: for Ki: membranes of HEK-293 cells stably expressing mouse TAAR1, first value of cell mouse/rat
Description: (§1) Construction of TAAR Expression Plasmids and Stably Transfected Cell Lines
(§2) For the construction of expression plasmids the coding sequences of human, rat and mouse TAAR 1 were amplified from genomic DNA essentially as described by Lindemann et al.. The Expand High Fidelity PCR System (Roche Diagnostics) was used with 1.5 mM Mg^2+ and purified PCR products were cloned into pCR2.1-TOPO cloning vector (Invitrogen) following the instructions of the manufacturer. PCR products were subcloned into the pIRESneo2 vector (BD Clontech, Palo Alto, Calif.), and expression vectors were sequence verified before introduction in cell lines.
(§3) HEK293 cells (ATCC # CRL-1573) were cultured essentially as described by Lindemann et al. (2005). For the generation of stably transfected cell lines HEK293 cells were transfected with the pIRESneo2 expression plasmids containing the TAAR coding sequences (described above) with Lipofectamine 2000 (Invitrogen) according to the instructions of the manufacturer, and 24 hrs post transfection the culture medium was supplemented with 1 mg/ml G418 (Sigma, Buchs, Switzerland). After a culture period of about 10 d clones were isolated, expanded and tested for responsiveness to trace amines (all compounds purchased from Sigma) with the cAMP Biotrak Enzyme immunoassay (EIA) System (Amersham) following the non-acetylation EIA procedure provided by the manufacturer.
Radioligand Binding Assay on Mouse TAAR1
(§4) Membrane Preparation and Radioligand Binding.
HEK-293 cells stably expressing mouse TAAR1 were maintained at 37° C. and 5% CO2 in DMEM high glucose medium, containing fetal calf serum (10%, heat inactivated for 30 min at 56° C.), penicillin/streptomycin (1%), and 375 μg/ml geneticin (Gibco). Cells were released from culture flasks using trypsin/EDTA, harvested, washed twice with ice-cold PBS (without Ca^2+ and Mg^2+), pelleted at 1,000 rpm for 5 min at 4° C., frozen and stored at −80° C. Frozen pellets were suspended in 20 ml HEPES-NaOH (20 mM, pH 7.4) containing 10 mM EDTA and homogenized with a Polytron (PT 6000, Kinematica) at 14,000 rpm for 20 s. The homogenate was centrifuged at 48,000×g for 30 min at 4° C. Subsequently, the supernatant was removed and discarded, and the pellet resuspended in 20 ml HEPES-NaOH (20 mM, pH 7.4) containing 0.1 mM EDTA using the Polytron (20 s at 14,000 rpm). This procedure was repeated and the final pellet resuspended in HEPES-NaOH containing 0.1 mM EDTA and homogenized using the Polytron. Typically, aliquots of 2 ml membrane portions were stored at −80° C. With each new membrane batch the dissociation constant (Kd) was determined via a saturation curve. The TAAR1 radioligand ^3[H]—(S)-4-[(ethyl-phenyl-amino)-methyl]-4,5-dihydro-oxazol-2-ylamine (described in WO 2008/098857) was used at a concentration equal to the calculated Kd value, that was usually around 0.7 nM, resulting in the binding of approximately 0.5% of the radioligand and a specific binding representing approximately 70% of the total binding. Nonspecific binding was defined as the amount of ^3[H]—(S)-4-[(ethyl-phenyl-amino)-methyl]-4,5-dihydro-oxazol-2-ylamine bound in the presence of 10 μM unlabeled ligand. All compounds were tested at a broad range of concentrations ([…]) in duplicates. […] The 96 deep well plates were incubated for 1 hr at 4° C. Incubations were terminated by rapid filtration through Unifilter-96 plates (Packard Instrument Company) and glass filters GF/C (Perkin Elmer) presoaked for 1 hr in polyethylenimine (0.3%) and washed 3 times with 1 ml of cold binding buffer. After addition of 45 μl of Microscint 40 (PerkinElmer) the Unifilter-96 plate was sealed and after 1 hr the radioactivity counted using a TopCount Microplate Scintillation Counter (Packard Instrument Company).

rat TAAR1 = rat TAAR1 (Rattus norvegicus (Rat), UniProt Q923Y9); test: Radioligand binding assay on rat TAAR1; settings: for Ki: membranes of HEK-293 cells stably expressing rat TAAR1, second value of cell mouse/rat
Description: as §1, §2, §3
Radioligand Binding Assay on rat TAAR1
as §4
HEK-293 cells stably expressing rat TAAR1 were maintained at 37° C. and 5% CO2 in DMEM high glucose medium, containing fetal calf serum (10%, heat inactivated for 30 min at 56° C.), penicillin/streptomycin (1%), and 375 μg/ml geneticin (Gibco). Cells were released from culture flasks using trypsin/EDTA, harvested, washed twice with ice-cold PBS (without Ca^2+ and Mg^2+), pelleted at 1,000 rpm for 5 min at 4° C., frozen and stored at −80° C. Frozen pellets were suspended in 20 ml HEPES-NaOH (20 mM, pH 7.4) containing 10 mM EDTA and homogenized with a Polytron (PT 6000, Kinematica) at 14,000 rpm for 20 s. The homogenate was centrifuged at 48,000×g for 30 min at 4° C. Subsequently, the supernatant was removed and discarded, and the pellet resuspended in 20 ml HEPES-NaOH (20 mM, pH 7.4) containing 0.1 mM EDTA using the Polytron (20 s at 14,000 rpm). This procedure was repeated and the final pellet resuspended in HEPES-NaOH containing 0.1 mM EDTA and homogenized using the Polytron. Typically, aliquots of 2 ml membrane portions were stored at −80° C. With each new membrane batch the dissociation constant (Kd) was determined via a saturation curve.
Nonspecific binding was defined as the amount of ^3-[H]-(S)-4-[(ethyl-phenyl-amino)-methyl]-4,5-dihydro-oxazol-2-ylamine bound in the presence of 10 μM unlabeled ligand. All compounds were tested at a broad range of concentrations (10 pM to 10 μM) in duplicates. […] The 96 deep well plates were incubated for 1 hr at 4° C. Incubations were terminated by rapid filtration through Unifilter-96 plates (Packard Instrument Company) and glass filters GF/C (Perkin Elmer) presoaked for 1 hr in polyethylenimine (0.3%) and washed 3 times with 1 ml of cold binding buffer. After addition of 45 μl of Microscint 40 (PerkinElmer) the Unifilter-96 plate was sealed and after 1 hr the ratioactivity counted using a TopCount Microplate Scintillation Counter (Packard Instrument Company).

Chain of rat TAAR1 (Q923Y9 whole entry): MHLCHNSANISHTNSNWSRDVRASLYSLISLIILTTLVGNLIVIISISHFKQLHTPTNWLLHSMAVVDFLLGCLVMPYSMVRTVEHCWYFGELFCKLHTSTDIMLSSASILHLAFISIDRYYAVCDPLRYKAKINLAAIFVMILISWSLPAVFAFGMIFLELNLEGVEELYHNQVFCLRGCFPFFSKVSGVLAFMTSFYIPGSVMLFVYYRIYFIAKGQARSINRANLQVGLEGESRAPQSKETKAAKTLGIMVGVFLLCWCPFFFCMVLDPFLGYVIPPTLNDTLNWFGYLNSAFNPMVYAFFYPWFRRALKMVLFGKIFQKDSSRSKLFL
Chain of mouse TAAR1 (Q923Y8 whole entry): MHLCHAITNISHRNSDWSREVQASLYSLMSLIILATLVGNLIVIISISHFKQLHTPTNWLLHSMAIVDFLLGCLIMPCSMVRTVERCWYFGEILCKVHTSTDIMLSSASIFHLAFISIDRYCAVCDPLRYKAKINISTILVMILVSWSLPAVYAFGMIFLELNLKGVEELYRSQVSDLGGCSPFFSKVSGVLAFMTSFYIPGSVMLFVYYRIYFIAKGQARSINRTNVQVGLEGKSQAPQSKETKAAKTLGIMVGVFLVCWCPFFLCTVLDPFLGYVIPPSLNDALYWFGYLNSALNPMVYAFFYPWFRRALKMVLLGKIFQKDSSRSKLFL

Compound | Ki (mouse TAAR1) [µM] | Ki (rat TAAR1) [µM] | Kd (mouse TAAR1; mouse TAAR1 membranes, saturation curve, usual value, read-out: calculated Kd value of the TAAR1 radioligand) [nM] | Kd (rat TAAR1; rat TAAR1 membranes, saturation curve, usual value, read-out: calculated Kd value of the TAAR1 radioligand) [nM]
Cn1nc(-c2ccc(C#N)cc2)cc1C(=O)Nc1ccc([C@H]2CNCCO2)cc1 [Example 21, (S)-3-(4-cyanophenyl)-1-methyl-N-(4-(morpholin-2-yl)phenyl)-1H-pyrazole-5-carboxamide hydrochloride] | 0.0053 | 0.0055 | – | –
Cn1nc(-c2cccc(Cl)c2)cc1C(=O)Nc1ccc([C@H]2CNCCO2)cc1 [Example 17, (S)-3-(3-chlorophenyl)-1-methyl-N-(4-(morpholin-2-yl)phenyl)-1H-pyrazole-5-carboxamide hydrochloride] | 0.0016 | 0.0024 | – | –
Cc1c(-c2ccccc2)n[nH]c1C(=O)Nc1ccc([C@H]2CNCCO2)cc1 [Example 6, (S)-4-methyl-N-(4-(morpholin-2-yl)phenyl)-3-phenyl-1H-pyrazole-5-carboxamide hydrochloride] | 0.0016 | 0.008 | – | –
O=C(Nc1ccc([C@H]2CNCCO2)cc1)c1cc(-c2ccccc2Cl)n[nH]1 [Example 10, (S)-3-(2-chlorophenyl)-N-(4-(morpholin-2-yl)phenyl)-1H-pyrazole-5-carboxamide hydrochloride] | 0.0005 | 0.0026 | – | –
O=C(Nc1ccc([C@H]2CNCCO2)cc1)c1ccn(-c2ccc(F)cc2)n1 [Example 29, (S)-1-(4-Fluorophenyl)-N-(4-(morpholin-2-yl)phenyl)-1H-pyrazole-3-carboxamide hydrochloride] | 0.0011 | 0.0024 | – | –
O=C(Nc1ccc([C@H]2CNCCO2)cc1)c1ccn(-c2nccnc2Cl)n1 [Example 49, (S)-1-(3-Chloropyrazin-2-yl)-N-(4-(morpholin-2-yl)phenyl)-1H-pyrazole-3-carboxamide hydrochloride] | 0.0142 | 0.139 | – | –
Cn1nc(-c2ccccc2)cc1C(=O)Nc1ccc([C@H]2CNCCO2)cc1 [Example 5, (S)-1-methyl-N-(4-(morpholin-2-yl)phenyl)-3-phenyl-1H-pyrazole-5-carboxamide hydrochloride] | 0.0072 | 0.0045 | – | –
O=C(Nc1ccc([C@H]2CNCCO2)cc1)c1ccn(-c2cnc(Cl)cn2)n1 [Example 50, (S)-1-(5-Chloropyrazin-2-yl)-N-(4-(morpholin-2-yl)phenyl)-1H-pyrazole-3-carboxamide hydrochloride] | 0.0027 | 0.0091 | – | –
O=C(Nc1ccc([C@H]2CNCCO2)cc1)c1ccn(-c2cncc(Cl)n2)n1 [Example 48, (S)-1-(6-Chloropyrazin-2-yl)-N-(4-(morpholin-2-yl)phenyl)-1H-pyrazole-3-carboxamide hydrochloride] | 0.0086 | 0.0118 | – | –

Now from value to compound:

Ki (mouse TAAR1) [µM] | Ki (rat TAAR1) [µM] | Kd (mouse TAAR1; mouse TAAR1 membranes, saturation curve, usual value, read-out: calculated Kd value of the TAAR1 radioligand) [nM] | Kd (rat TAAR1; rat TAAR1 membranes, saturation curve, usual value, read-out: calculated Kd value of the TAAR1 radioligand) [nM] | Compound
0.001 | 0.0021 | – | – | CCn1nc(-c2cccc(OC(F)F)c2)cc1C(=O)Nc1ccc([C@H]2CNCCO2)cc1 [Example 42, (S)-3-(3-(Difluoromethoxy)phenyl)-1-ethyl-N-(4-(morpholin-2-yl)phenyl)-1H-pyrazole-5-carboxamide hydrochloride]
– | – | ~0.7 | ~2.3 | CCN(C[C@H]1COC(N)=N1)c1ccccc1 [^3[H]—(S)-4-[(ethyl-phenyl-amino)-methyl]-4,5-dihydro-oxazol-2-ylamine, reference compound]
0.0014 | 0.003 | – | – | N#Cc1cc(-c2cc(C(=O)Nc3ccc([C@H]4CNCCO4)cc3)[nH]n2)ccc1F [Example 39, (S)-5-(3-Cyano-4-fluorophenyl)-N-(4-(morpholin-2-yl)phenyl)-1H-pyrazole-3-carboxamide hydrochloride]
0.143 | 1.32 | – | – | O=C(Nc1ccc([C@H]2CNCCO2)cc1)c1ccnn1-c1ccccc1 [Example 30, (S)—N-(4-(Morpholin-2-yl)phenyl)-1-phenyl-1H-pyrazole-5-carboxamide hydrochloride]
